# In article PMC10725471, “Chemical modulation of cytosolic BAX homodimer potentiates BAX activation and apoptosis” (Nature Communications, 2023):
# Where a name gives a salt, the structure may show the parent alone.
# Tests used:
# [1] = test system: HCT116 BAX WT, HCT116 BAX P168G and HCT116 BAX E75K cells; experiment: Caspase 3/7 activation assay; assay type: cell-based, human; conditions: all HCT116 BAX cell lines, titration, 6 hrs
# [2] = test system: HCT116 BAX WT cells (HCT116 BAX KO reconstituted with BAX WT, cytosolic dimer); experiment: Cell viability (CellTiter-Glo) assay; assay type: cell-based; conditions: Homo sapiens, HCT-116, 24 h
# [3] = test system: HCT116 BAX E75K cells (HCT116 BAX KO reconstituted with BAX E75K, cytosolic monomer); experiment: Cell viability (CellTiter-Glo) assay; assay type: cell-based; conditions: Homo sapiens, HCT-116, after 24 h
# [4] = test system: HCT116 BAX P168G cells (HCT116 BAX KO reconstituted with BAX P168G, cytosolic dimer); experiment: Cell viability (CellTiter-Glo) assay; conditions: up to highest concentration of 2 μM, 24 h
# [5] = test system: CALU-6 CRISPR/Cas9 BAX KO cells; experiment: Caspase 3/7 activation assay; assay type: cell-based, human; conditions: CALU-6 BAX KO, 8 hrs
# HCT116 BAX P168G cells = experiment: Caspase 3/7 activation assay; assay type: cell-based, human
# BAX in CALU-6 cells = biological target: T1, BAX in CALU-6 cells (Homo sapiens, UniProt Q07812); experiment: Active BAX immunoprecipitation with 6A7 antibody (BAX conformational change assay); assay type: cell-based; conditions: 20 µM, 2 hrs
# T1 construct: endogenous in cells; host or cells: CALU-6
# T1 sequence (Q07812 whole entry): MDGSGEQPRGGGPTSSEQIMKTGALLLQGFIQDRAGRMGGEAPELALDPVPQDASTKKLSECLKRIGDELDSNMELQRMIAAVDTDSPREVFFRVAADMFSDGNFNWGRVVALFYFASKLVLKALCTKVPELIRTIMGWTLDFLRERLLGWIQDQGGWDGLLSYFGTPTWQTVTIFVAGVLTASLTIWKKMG
# Experimental: Cells were harvested and lysed with a 1% CHAPS lysis buffer (150 mM NaCl, 10 mM HEPES, pH 7.4, 1% CHAPS) supplemented with Halt protease inhibitor cocktail (Thermofisher Cat. 1861279). Whole-cell lysates were subjected to immunoprecipitation followed by immunoblotting against total BAX. Briefly, 500–1000 μg total protein in 600 µl was collected and incubated with 12 µl (50% slurry) of pre-equilibrated protein G agarose beads (Santa Cruz Biotechnology) for 30 min at 4 °C on a rotator. The precleared samples were then incubated with 5 µl of 6A7 antibody (Santa Cruz Biotechnology Cat. 23959) overnight at 4 °C. The next day, 20 µl (50% slurry) of pre-equilibrated G agarose beads (Santa Cruz Biotechnology) were added to the samples and incubated for 2 h at 4 °C. The beads were pelleted, washed with the lysis buffer 3 times, and protein eluted by heating the beads at 90 °C for 15 minutes in 1X LDS/DTT loading buffer. The immunoprecipitates were subjected to electrophoresis on 4–12% NuPage gels (Life Technologies). For visualization of proteins using Odyssey Infrared Imaging System (LI-COR Biosciences), membranes were blocked in PBS containing 5% milk powder for 1 hour at room temperature. Primary antibodies were incubated overnight at 4 °C. After washing, membranes were incubated with an IRdye800-conjugated goat anti-rabbit IgG (1:10, 000) or IRDye800- conjugated goat anti-mouse IgG (1:20,000 dilution) secondary antibodies (LI-COR Biosciences). Antibodies were used to detect the following proteins on membrane: BAX (Cell Signaling Cat. 2772) and β-Actin (Sigma Cat. A1978) or β-tubulin (Cell Signaling Cat. 2146).
# SUDHL-5 cells = experiment: Cell viability (CellTiter-Glo) assay; assay type: cell-based; conditions: Homo sapiens, SU-DHL-5; SUDHL-5, 72 hrs
# [6] = biological target: cytosolic BAX (endogenous, human cell lines) (human (endogenous in human cell lines)) (UniProt Q07812); experiment: SEC; cytosolic fraction (2.5 mg, lysis without detergent) on Superdex 200 10/300 GL in IBc buffer (10 mM Tris HCl, 1 mM EGTA, 200 mM sucrose, pH 7.5), 4 °C; fractions blotted for BAX; cell lines with BAX centered at 14–14.5 ml (CALU-6, HCT-116, Namalwa, BEAS-2B, IMR90 and other lines of the panel)
# [7] = biological target: human BAX WT in HCT116 BAX KO cells (human) (UniProt Q07812); experiment: SEC; cytosolic fraction of HCT116 BAX KO cells reconstituted with BAX WT, P168G or E75K, untreated; Superdex 200 10/300 GL in IBc buffer, 4 °C; fractions blotted for BAX
# [8] = biological target: FITC-BIM SAHB, hydrocarbon-stapled peptide corresponding to the BH3 domain of BIM; experiment: fluorescence polarisation; direct binding: FITC-BIM SAHB (25 nM) with serial dilutions of full-length BAX; 10-minute time-point
# Sequence of recombinant human full-length (aa1–192) wild-type BAX (Q07812 whole entry, the tested form may be a part): as the sequence (Q07812 whole entry) above
compound,measurement,setting,value
"CC1(C)CCC(CN2CCN(c3ccc(C(=O)NS(=O)(=O)c4ccc(NCC5CCOCC5)c([N+](=O)[O-])c4)c(Oc4cnc5[nH]ccc5c4)c3)CC2)=C(c2ccc(Cl)cc2)C1 [ABT-199, Venetoclax]",caspase-3/7 activity (result in words),[1],failed to induce caspase-3/7 activity
"CC1(C)CCC(c2ccc(Cl)cc2)=C(CN2CCN(c3ccc(C(=O)NS(=O)(=O)c4ccc(N[C@H](CCN5CCOCC5)CSc5ccccc5)c(S(=O)(=O)C(F)(F)F)c4)cc3)CC2)C1 [ABT-263, Navitoclax]",IC50,[2],0.191 µM
same,IC50,[3],0.045 µM
same,cell viability (result in words),[4],did not show decreased viability
same,caspase-3/7 activation (result in words),[5],no caspase-3/7 activation was observed
same,caspase-3/7 activity (result in words),"HCT116 BAX P168G cells; titration, 6 hrs",did not show caspase-3/7 activity
O=C(O)c1ccc(-n2c(/C=C/C3CCCC3)nc3ccc(I)cc3c2=O)cc1 [BDM19.2],6A7 epitope exposure and activation of BAX (result in words),BAX in CALU-6 cells,none of the analogs
O=C(O)c1ccc(-n2c(/C=C/C3CC3)nc3ccc(I)cc3c2=O)cc1 [BDM19.3],6A7 epitope exposure and activation of BAX (result in words),BAX in CALU-6 cells,none of the analogs
Cc1cccc(/C=C/c2nc3c(c(=O)n2-c2ccc(C(=O)O)cc2)CCCC3)c1 [BDM19.4],6A7 epitope exposure and activation of BAX (result in words),BAX in CALU-6 cells,none of the analogs
Cc1cccc(/C=C/c2nc3ccc(I)cc3c(=O)n2-c2ccc(C(=O)O)cc2)c1 [BDM19],IC50,SUDHL-5 cells,1.36 µM
same,caspase-3/7 activation (result in words),[5],no caspase-3/7 activation was observed
"COc1cccc2c1C(=O)c1c(O)c3c(c(O)c1C2=O)C[C@@](O)(C(=O)CO)C[C@@H]3O[C@H]1C[C@H](N)[C@H](O)[C@H](C)O1 [doxorubicin, Doxorubicin hydrochloride]",caspase-3/7 activation (result in words),"HCT116 BAX P168G cells; various concentrations, 24 hrs",not responsive
"cytosolic BAX (endogenous, human cell lines) (from UniProt Q07812 1-192) (natural protein)",stoichiometry N,[6],2
human BAX WT in HCT116 BAX KO cells (from UniProt Q07812 1-192) (natural protein),stoichiometry N,[7],2
recombinant human full-length (aa1–192) wild-type BAX (from UniProt Q07812 1-192) (natural protein),EC75,[8],0.125 µM
